Target: T1, Bile acid receptor (Homo sapiens, UniProt Q96RI1)
T1 sequence (Q96RI1 whole entry): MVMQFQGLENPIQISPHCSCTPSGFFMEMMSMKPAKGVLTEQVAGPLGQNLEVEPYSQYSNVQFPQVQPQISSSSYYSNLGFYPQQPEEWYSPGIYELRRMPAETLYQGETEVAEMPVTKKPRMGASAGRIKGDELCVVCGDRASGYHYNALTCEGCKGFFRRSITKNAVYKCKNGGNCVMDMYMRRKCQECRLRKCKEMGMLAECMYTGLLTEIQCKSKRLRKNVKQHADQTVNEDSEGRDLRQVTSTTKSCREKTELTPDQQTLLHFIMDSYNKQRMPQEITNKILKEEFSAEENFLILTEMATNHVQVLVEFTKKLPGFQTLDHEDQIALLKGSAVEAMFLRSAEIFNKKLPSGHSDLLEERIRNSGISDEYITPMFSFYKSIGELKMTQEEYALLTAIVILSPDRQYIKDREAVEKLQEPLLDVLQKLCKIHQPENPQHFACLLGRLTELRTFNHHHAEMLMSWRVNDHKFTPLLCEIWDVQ
Assay: FXR Reporter Assay kit purchased from Indigo Bioscience (Catalogue number: IB00601) to determine the potency and efficacy of compound developed by Enanta that can induce FXR activation. The principle application of this reporter assay system is to quantify functional activity of human FXR. The assay utilizes non-human mammalian cells, CHO (Chinese hamster ovary) cells engineered to express human NR1H4 protein (referred to as FXR). Reporter cells also incorporate the cDNA encoding beetle luciferase which catalyzes the substrates and yields photon emission. Luminescence intensity of the reaction is quantified using a plate-reading luminometer, Envision. Reporter Cells include the luciferase reporter gene functionally linked to an FXR responsive promoter. Thus, quantifying changes in luciferase expression in the treated reporter cells provides a sensitive surrogate measure of the changes in FXR activity. […] The assay is according to the manufacturer's instructions. In brief, the assay was performed in white, 96 well plates using final volume of 100 μl containing cells with different doses of compounds. Retrieve Reporter Cells from −80° C. storage. Perform a rapid thaw of the frozen cells by transferring a 10 ml volume of 37° C. cell recovery medium into the tube of frozen cells. Recap the tube of Reporter Cells and immediately place it in a 37° C. water bath for 5-10 minutes. […]
Format: cell-based

Structure (SMILES): CN(C)S(=O)(=O)NC(=O)c1ccc2nc(N3C4CC[C@H]3C[C@H](OCc3c(-c5c(Cl)cccc5Cl)noc3C3CC3)C4)sc2c1
- EC50: < 0.1 µM
